The text below walks through data of US10519504B2, “Methods for treatment of oncological disorders using epimetabolic shifters, multidimensional intracellular molecules, or environmental influencers” (Berg LLC, priority 2009, dated 2019).

Molecules are shown by their SMILES.

In data set [1] the test system is Pyruvate Dehydrogenase-B (PDH-E1). Nature of the data set: Western blot, Pyruvate Dehydrogenase beta levels. It counts as cell-based, human. The protocol:
The pyruvate kinase blots were stripped by incubating for 30 minutes with methanol, followed by two 10 minute washes with TBS-T, then 30 minutes of incubation with Stripping buffer at 50 deg C., and followed by two washes with 100 ml or more of TBS-T for 30′ each. The 2 blots were scanned in laser scanner to check for complete stripping. After making sure stripping of the antibody and the ECF reagent has worked, the blots were activated with methanol for 5 seconds, washed with water for 5 minutes, and TBST for 15 minutes. The blots are blocked for 1 hour with 5% blocking reagent in TBS-T at room temperature and then washed 3 times with TBS-T (1X−15′; 2X5′ each) and probed with the antibody for Pyruvate Dehydrogenase in 5% BSA (ABNOVA catalog #H00005162-M03) at 1:500 dilutions) overnight at 4 deg C. with shaking. After the overnight incubation with primary antibody for Pyruvate Dehydrogenase, the membranes were washed 3 times with TBS-T (1X−15′; 2X5′ each) and probed with the secondary antibody (antimouse; 1:10,000 dilution) for 1 h on the orbital tilting shaker at room temperature. […]
The levels of LDH and PDH were determined by probing the blots successively with primary antibodies for LDH and PDH, essentially as described above. […]
On the technique in general: Immunoblotting shows a protein as a band on a membrane.

Data set [2] concerns Succinate Dehydrogenase (SDH) Subunit B. Nature of the data set: Western blot, Succinate Dehydrogenase B in mitochondrial preparations. The note with it: mitochondrial preparations of cancer cells. The format is cell-based. How it is done: The above blots were stripped by incubating for 30 minutes with methanol, followed by two 10 minute washes with TBS-T, then 30 minutes of incubation with Stripping buffer at 50 deg C., and followed by two washes with 100 ml or more of TBS-T for 30′ each. The blots were scanned in laser scanner to check for complete stripping. The blots were activated with methanol for 5 seconds, washed with water for 5 minutes, and TBST for 15 minutes. The blots were blocked for 1 hour with 5% blocking reagent in TBS-T at room temperature and then washed 3 times with TBS-T (1X−15′; 2X5′ each) and probed with the primary antibody for PKM2, SDHB or SDHC in 5% BSA in TBS-T by incubation overnight at 4 deg C. with gentle shaking. The primary antibody for SDHC (ABNOVA H00006391-M12; antimouse) was at 1:500 dilution. The primary antibody for SDHB was from Abcam ab4714-200; antimouse; at 1:1000 dilution. The primary antibody for Pyruvate Kinase M2 (PKM2) was from Novus Biologicals H00005315-D0IP; antirabbit; at 1:500 dilution. After incubation with primary antibodies, the membranes were washed 3 times with TBS-T (1X−15′; 2X5′ each) and probed with the secondary antibody (SDHB & C antimouse; and PKM2 antirabbit; 1:10,000 dilution) for 1 h on the orbital tilting shaker at room temperature. […]

In data set [3] the test system is HepG2 (liver cancer) cells. As to the kind of experiment: Real-time PCR Diabetes Array. It counts as cell-based. The following applies: 100 μM Q10. How it is done:
The treatment was initiated on 1×10^5 cells per well, following the procedure utilized in the PaCa2 cells (above, Examples 9-11). However, the total amount of RNA that was extracted from these samples was lower than expected. Reverse transcription is normally done using 1 μg of total RNA (determined by measurement at 260 nm). The maximum volume that can be used per reverse transcription is 8 μl.
(Real-time PCR tracks product formation cycle by cycle.)

Another data set concerns SK-MEL-28 mitochondria. The following applies: human, 48 h, 100 µM.

Method for SK-MEL-28 mitochondria: Cells were centrifuged, pelleted, flash frozen and stored at −80° C. until the mitochondria were isolated. Cell pellets were thawed, resuspended and ruptured in Dounce homogenizer. The homogenate was centrifuged and mitochondria were isolated using reagents and the protocol recommended by the Mitochondria Isolation kit for Cultured cells (MitoSciences, Eugene Oreg., Cat #MS852). The mitochondrial fraction was aliquoted and stored at −80° C.
Analysis was by LC-MS/MS on a Waters Quattro II triple quadrupole mass spectrometer with a Prism RP 1×100 mm, 5 μm particle size column (Keystone Scientific). Isocratic elution with 4 mM ammonium formate in 20% isopropyl alcohol 80% methanol at a flow rate of 50 μl/min. Ten μl of each sample was injected.

Regarding `COC1=C(OC)C(=O)C(C/C=C(\C)CC/C=C(\C)CC/C=C(\C)CC/C=C(\C)CC/C=C(\C)CC/C=C(\C)CC/C=C(\C)CC/C=C(\C)CC/C=C(\C)CCC=C(C)C)=C(C)C1=O` [Q10, Coenzyme Q10], in data set [1] (cancer cells), the “expression of PDH-E1” value is recorded as “progressive increase in the expression of the PDH-E1 proteins”. For the same compound, the “expression of PDH-E1” value in data set [1] (normal cells) is recorded as “minimal changes in the normal cells”. In data set [2], the SDH protein levels entry was “increase SDH protein levels”. In data set [3] (HepG2, 48 hours), the PPARGC1A regulation entry was “normalized or were slightly upregulated” and the PRKAA1 regulation result is “normalized or were slightly upregulated”. In data set [3] (HepG2 cells, genes: PPARGC1A, PRKAA1, SNAP25), the “genes regulated in the Diabetes Arrays” value is “List of genes regulated in the Diabetes Arrays when HepG2 cells”. Besides, in the data set on SK-MEL-28 mitochondria, the Q10H2 came out at 0.28 ng/Sample and the “increase in the levels of Q10H2” value was 3 fold.
